#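 Test compounds were applied to cells in 96-well plates for 48 hours at 5 doses. GI50: concentration for 50% inhibition of growth.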 The source made the active and inactive calls. Rule as the data show it: active = GI50 up to about 1.1 µM and inactive = higher.
# Tests used:
# Assay in all cases: NCI tumour cell line growth inhibition, 48 h
# DU-145 = system: DU-145
# HOP-62 = system: HOP-62
# SR = system: SR
# NCI-H23 = system: NCI-H23
# MOLT-4 = system: MOLT-4
# SK-OV-3 = system: SK-OV-3
# RPMI-8226 = system: RPMI-8226
# SK-MEL-5 = system: SK-MEL-5
# ACHN = system: ACHN
# HCT-15 = system: HCT-15
# U-251 = system: U-251
# NCI/ADR-RES = system: NCI/ADR-RES
# NCI-H522 = system: NCI-H522
# HOP-92 = system: HOP-92
# Malme-3M = system: Malme-3M
# UO-31 = system: UO-31
# UACC-62 = system: UACC-62
# SNB-75 = system: SNB-75
# IGROV-1 = system: IGROV-1
# PC-3 = system: PC-3
Structure (SMILES),GI50 (DU-145),GI50 (HOP-62),GI50 (SR),GI50 (NCI-H23),GI50 (MOLT-4),GI50 (SK-OV-3),GI50 (RPMI-8226),GI50 (SK-MEL-5),GI50 (ACHN),GI50 (HCT-15) [µM],GI50 (U-251),GI50 (NCI/ADR-RES),GI50 (NCI-H522),GI50 (HOP-92),GI50 (Malme-3M),GI50 (UO-31),GI50 (UACC-62),GI50 (SNB-75),GI50 (IGROV-1),GI50 (PC-3)
NS(=O)(=O)c1nnc(NC(=O)C23CC4CC(CC(C4)C2)C3)s1,> 100 µM (inactive),> 100 µM (inactive),> 100 µM (inactive),> 100 µM (inactive),> 100 µM (inactive),> 100 µM (inactive),88.9 µM (inactive),96.2 µM (inactive),> 100 µM (inactive),> 100,> 100 µM (inactive),> 100 µM (inactive),68.2 µM (inactive),> 100 µM (inactive),> 100 µM (inactive),> 100 µM (inactive),> 100 µM (inactive),,,
CN1CN(C2OC(CO)C(O)C2O)c2nc(N)[nH]c(=O)c21 (configuration not stated),,> 100 µM (inactive),> 100 µM (inactive),> 100 µM (inactive),> 100 µM (inactive),> 100 µM (inactive),> 100 µM (inactive),> 100 µM (inactive),> 100 µM (inactive),> 100,> 100 µM (inactive),,5.15 µM (inactive),> 100 µM (inactive),> 100 µM (inactive),> 100 µM (inactive),> 100 µM (inactive),> 100 µM (inactive),> 100 µM (inactive),
CCSc1nnc(CSc2nc(-c3ccccc3)c(-c3ccccc3)[nH]2)n1-c1ccccc1,,20.2 µM (inactive),24.3 µM (inactive),21 µM (inactive),15.2 µM (inactive),26.4 µM (inactive),21.5 µM (inactive),17.1 µM (inactive),17.2 µM (inactive),18.5,17.9 µM (inactive),,16.4 µM (inactive),20.8 µM (inactive),20 µM (inactive),17.1 µM (inactive),15.3 µM (inactive),18.4 µM (inactive),20.9 µM (inactive),
CCC(=O)NCC1(c2c[nH]c3ccccc23)SCCS1,,> 100 µM (inactive),> 100 µM (inactive),> 100 µM (inactive),42.4 µM (inactive),> 100 µM (inactive),> 100 µM (inactive),> 100 µM (inactive),82 µM (inactive),> 100,> 100 µM (inactive),,> 100 µM (inactive),> 100 µM (inactive),> 100 µM (inactive),,63.4 µM (inactive),> 100 µM (inactive),> 100 µM (inactive),
O=C(N/N=C(COc1cccc(Cl)c1)\N=C\c1ccncc1)c1ccncc1,> 100 µM (inactive),> 100 µM (inactive),,> 100 µM (inactive),> 100 µM (inactive),> 100 µM (inactive),> 100 µM (inactive),,> 100 µM (inactive),> 100,> 100 µM (inactive),> 100 µM (inactive),> 100 µM (inactive),35.6 µM (inactive),> 100 µM (inactive),,> 100 µM (inactive),,> 100 µM (inactive),> 100 µM (inactive)
O=C(CC1=Nc2nnc(CCCCCCCc3nnc4n3C(=O)C(CC(=O)c3ccc5ccccc5c3)=N4)n2C1=O)c1ccc2ccccc2c1,,> 100 µM (inactive),> 100 µM (inactive),> 100 µM (inactive),> 100 µM (inactive),> 100 µM (inactive),> 100 µM (inactive),,> 100 µM (inactive),> 100,> 100 µM (inactive),,> 100 µM (inactive),> 100 µM (inactive),> 100 µM (inactive),> 100 µM (inactive),> 100 µM (inactive),> 100 µM (inactive),66.2 µM (inactive),
CC1CC(NN)=Nc2ccccc2N1 (configuration not stated),> 100 µM (inactive),> 100 µM (inactive),,> 100 µM (inactive),> 100 µM (inactive),> 100 µM (inactive),65.9 µM (inactive),> 100 µM (inactive),> 100 µM (inactive),> 100,> 100 µM (inactive),> 100 µM (inactive),> 100 µM (inactive),,16.6 µM (inactive),> 100 µM (inactive),> 100 µM (inactive),,> 100 µM (inactive),> 100 µM (inactive)
N/N=c1/nc2n(c3ncccc13)C=CNN2,,> 100 µM (inactive),> 100 µM (inactive),> 100 µM (inactive),> 100 µM (inactive),> 100 µM (inactive),> 100 µM (inactive),> 100 µM (inactive),> 100 µM (inactive),> 100,> 100 µM (inactive),,> 100 µM (inactive),> 100 µM (inactive),> 100 µM (inactive),,> 100 µM (inactive),,> 100 µM (inactive),
CC(=O)C(C(C)=O)=C1CCCC(O)O1 (configuration not stated),> 100 µM (inactive),> 100 µM (inactive),62.2 µM (inactive),> 100 µM (inactive),> 100 µM (inactive),> 100 µM (inactive),> 100 µM (inactive),> 100 µM (inactive),> 100 µM (inactive),> 100,> 100 µM (inactive),> 100 µM (inactive),,,> 100 µM (inactive),> 100 µM (inactive),> 100 µM (inactive),> 100 µM (inactive),> 100 µM (inactive),
COCC1C(=O)c2cc3c(cc2C12C=CC1(C=C2)OCCO1)OCO3 (configuration not stated),,21.6 µM (inactive),1.82 µM (inactive),12.5 µM (inactive),1.65 µM (inactive),16.1 µM (inactive),1.43 µM (inactive),> 10 µM (inactive),12.7 µM (inactive),1.6,3.67 µM (inactive),,1.63 µM (inactive),14.5 µM (inactive),13.8 µM (inactive),,12.2 µM (inactive),14.9 µM (inactive),15.4 µM (inactive),
O=C(Cc1csc(-c2nc(CC(=O)NNc3ccccc3)cs2)n1)NNc1ccccc1,,> 100 µM (inactive),25.5 µM (inactive),> 100 µM (inactive),39.4 µM (inactive),> 100 µM (inactive),> 100 µM (inactive),> 100 µM (inactive),> 100 µM (inactive),38.4,> 100 µM (inactive),,20.4 µM (inactive),> 100 µM (inactive),> 100 µM (inactive),> 100 µM (inactive),> 100 µM (inactive),> 100 µM (inactive),> 100 µM (inactive),
CN1CCC2(CC1)/C(=N/C1CCCCC1)NC(=S)N2c1ccccc1,> 100 µM (inactive),> 100 µM (inactive),> 100 µM (inactive),> 100 µM (inactive),> 100 µM (inactive),> 100 µM (inactive),> 100 µM (inactive),> 100 µM (inactive),89.3 µM (inactive),> 100,> 100 µM (inactive),> 100 µM (inactive),,> 100 µM (inactive),> 100 µM (inactive),> 100 µM (inactive),> 100 µM (inactive),> 100 µM (inactive),> 100 µM (inactive),
COC(=O)c1c2c(cc3c1CC1(Cc4cc5c(c(C(C)=O)c4C1)CCCC5)C3)CCCC2 (configuration not stated),,> 100 µM (inactive),3.02 µM (inactive),> 100 µM (inactive),,> 100 µM (inactive),29.6 µM (inactive),34.1 µM (inactive),44.1 µM (inactive),> 100,> 100 µM (inactive),> 100 µM (inactive),> 100 µM (inactive),> 100 µM (inactive),> 100 µM (inactive),,> 100 µM (inactive),,> 100 µM (inactive),24.6 µM (inactive)
CCCCCCC(=O)OC[n+]1ccc2c(C)c3[nH]c4ccccc4c3c(C)c2c1,,2.08 µM (inactive),0.101 µM (active),0.455 µM (active),0.118 µM (active),1.83 µM (inactive),0.0785 µM (active),1.56 µM (inactive),0.703 µM (active),0.348,0.552 µM (active),,1.56 µM (inactive),3.18 µM (inactive),1.61 µM (inactive),3.42 µM (inactive),2.72 µM (inactive),1.85 µM (inactive),1.47 µM (inactive),
COc1cccc2c(NNc3ccc(Cl)cc3)c3ccc([N+](=O)[O-])cc3nc12,9.84 µM (inactive),10.9 µM (inactive),1.08 µM (active),13.3 µM (inactive),1.92 µM (inactive),15.1 µM (inactive),14.3 µM (inactive),12.4 µM (inactive),5.68 µM (inactive),8.59,11.7 µM (inactive),,6.07 µM (inactive),10.9 µM (inactive),10.3 µM (inactive),5.33 µM (inactive),8.38 µM (inactive),,,8.91 µM (inactive)
O=S(=O)(N/C(=N\O)Nc1ccc(Cl)cc1)c1cc2ccccc2o1,47.2 µM (inactive),23.6 µM (inactive),,18 µM (inactive),22.6 µM (inactive),19.3 µM (inactive),,15.3 µM (inactive),19.5 µM (inactive),14.7,17.7 µM (inactive),19.8 µM (inactive),12.2 µM (inactive),13.3 µM (inactive),19.9 µM (inactive),46.7 µM (inactive),10.9 µM (inactive),38.1 µM (inactive),12.6 µM (inactive),25.4 µM (inactive)
CC(=O)Oc1ccc(O)c(O)c1C/C=C(\C)CC/C=C(\C)CC/C=C(\C)CCC=C(C)C [TETRAPRENYLPHENOLSUILLIN],,1.24 µM (inactive),0.0564 µM (active),0.429 µM (active),,,,,0.275 µM (active),,0.346 µM (active),,1.51 µM (inactive),0.309 µM (active),0.274 µM (active),1.42 µM (inactive),,0.439 µM (active),,

# Source: ChEMBL document CHEMBL1201862, “PubChem BioAssay data set” (2004)
